Measured values reported in US8119355B2, “Biomarkers for cancer sensitivity and uses thereof” (The UAB Research Foundation, priority 2006, dated 2012).

Legend:
COLO 205 tumors = assay: COLO 205 xenograft model, tumor size; assay type: in vivo, athymic nude mice; details: TRA-8 10 mg/kg intraperitoneally days 16 and 20; CPT-11 33 mg/kg intravenously days 17 and 21
Procedure: Preparation of sera from tumor-bearing mice. COLO 205 cells (1×10^7) were inoculated subcutaneously into athymic nude mice on day 0. The mice were grouped randomly. Each of the groups consisted of 3 mice. TRA-8 (10 mg/kg) was administered intraperitoneally to mice on days 16 and 20. CPT-11 (33 mg/kg) was administered intravenously to mice on days 17 and 21. Length and width of solid tumors were measured twice weekly. Tumor volume (mm^3) was calculated as axb^2/2, where a and b are the length and the width (mm) of the tumor, respectively. Tumor size was determined as a percentage relative to the tumor volume on day 16. Sera were obtained from the tumor-bearing mice on day 23.

[1] = test system: COLO 205 human colon cancer cells; assay: cell viability, ATPLite assay, serum-free condition; assay type: cell-based; details: for effect on cell viability: 48 h; for cells killed: incubation time (24 or 48 h) not given
Procedure: (§1) Cell viability analysis: To examine the effect of the serum, the cells (2×10^4) were plated onto well of a 96-well microplate and cultured in complete culture medium at 37° C. for 24 h, washed with serum-free medium, and further incubated in 100 μl of complete medium or serum-free medium at 37° C. for the indicated times. Cell viability was assessed by measurement of cellular ATP levels using ATPlite™-M luminescence assay system (PerkinElmer, Inc., Waltham, Mass.) according to the manufacturer's instructions, and determined as a percentage relative to the luminescence value of cells, which were cultured in complete medium, used as a control. The assay of cell viability was repeated in triplicate experiments. Data were statistically analyzed by the Student t test. In case of the Student t test, if variance of homogeneity was rejected (P<0.05 by F test), the Welch test was applied. Probability values (P-values) less than 0.05 were considered to be statistically significant. All P-values were rounded to four decimal places.
(§2) To evaluate the effect of TRA-8 in serum-free condition, the cells were cultured as described above, washed with serum-free medium and treated with or without TRA-8 or chemotherapeutic agents in 100 μl of serum-free medium at 37° C. for the indicated times. Cell viability was assessed using ATPLite™ assay (PerkinElmer, Inc., Waltham, Mass.) and determined as a percentage relative to the luminescence value of untreated cells used as a control. The assay of cell viability was repeated in triplicate experiments.

[2] = test system: WiDr human colon cancer cells; assay: as above; assay type: cell-based; details: for cells killed: incubation time (24 or 48 h) not given
Procedure: as §1, §2

Row | SMILES | antitumor efficacy (tumor size) (COLO 205 tumors) | effect on cell viability ([1]; 50 μM agent) | cells killed ([1]; 50 μM agent) [%] | effect on cell viability ([2]; 50 μM oxaliplatin, 24 h) | effect on cell viability ([2]; 50 μM oxaliplatin, 48 h) | cells killed ([2]; 50 μM oxaliplatin) [%] | effect on cell viability ([1]; 1 μM paclitaxel) | cells killed ([1]; 1 μM paclitaxel) [%] | effect on cell viability ([2]; 1 μM paclitaxel, 48 h) | cells killed ([2]; 1 μM paclitaxel) [%]
1 | CCc1c2c(nc3ccc(OC(=O)N4CCC(N5CCCCC5)CC4)cc13)-c1cc3c(c(=O)n1C2)COC(=O)[C@]3(O)CC [CPT-11] | not antitumor effects | significant effect | 71 | – | – | – | – | – | – | –
2 | O=C1[O][Pt]2([NH][C@@H]3CCCC[C@H]3[NH]2)[O]C1=O [oxaliplatin] | – | affected cell viability | 41 | significant effect | affected cell viability | 99 | – | – | – | –
3 | CC(=O)O[C@H]1C(=O)[C@@]2(C)[C@H]([C@H](OC(=O)c3ccccc3)[C@]3(O)C[C@H](OC(=O)[C@H](O)[C@@H](NC(=O)c4ccccc4)c4ccccc4)C(C)=C1C3(C)C)[C@]1(OC(C)=O)CO[C@@H]1C[C@@H]2O [paclitaxel] | – | – | – | – | – | – | affected cell viability | 62 | affected cell viability | 72
